Measured values as given in the NIST ThermoML archive (doi:10.1021/acs.jced.9b00704).
± gives the expanded uncertainty stated by the source.

Conditions: Liquid, Light diffraction method

CCCCCC(=O)OC [methyl hexanoate]
speed of sound (297.83 K, 110 kPa): 1225.1 ± 20 m/s
speed of sound (298.17 K, 10000 kPa): 1274.4 ± 20 m/s
speed of sound (298.35 K, 7010 kPa): 1261.9 ± 20 m/s
speed of sound (298.56 K, 5000 kPa): 1252.4 ± 20 m/s
speed of sound (298.76 K, 1010 kPa): 1231.7 ± 20 m/s
speed of sound (298.85 K, 3000 kPa): 1240.3 ± 20 m/s
speed of sound (306.48 K, 110 kPa): 1182.9 ± 19 m/s
speed of sound (308.58 K, 10010 kPa): 1227.8 ± 20 m/s
speed of sound (308.59 K, 1010 kPa): 1186.9 ± 19 m/s
speed of sound (308.9 K, 7000 kPa): 1221.1 ± 20 m/s
speed of sound (309.13 K, 5010 kPa): 1210.5 ± 19 m/s
speed of sound (309.19 K, 3010 kPa): 1197.6 ± 19 m/s
speed of sound (317.52 K, 10010 kPa): 1181 ± 19 m/s
speed of sound (317.6 K, 7010 kPa): 1175.8 ± 19 m/s
speed of sound (317.92 K, 100 kPa): 1137 ± 18 m/s
speed of sound (318.3 K, 1000 kPa): 1142.6 ± 18 m/s
speed of sound (318.41 K, 5010 kPa): 1160.9 ± 19 m/s
speed of sound (319.17 K, 3010 kPa): 1152.2 ± 18 m/s
speed of sound (327.21 K, 110 kPa): 1090.2 ± 18 m/s
speed of sound (327.38 K, 7010 kPa): 1130.2 ± 18 m/s
speed of sound (327.4 K, 10010 kPa): 1143.2 ± 18 m/s
speed of sound (327.58 K, 1010 kPa): 1097.9 ± 18 m/s
speed of sound (327.64 K, 5010 kPa): 1120.6 ± 18 m/s
speed of sound (327.9 K, 3000 kPa): 1107.9 ± 18 m/s
speed of sound (336.91 K, 100 kPa): 1055.2 ± 17 m/s
speed of sound (337.21 K, 5000 kPa): 1091.3 ± 18 m/s
speed of sound (337.21 K, 7010 kPa): 1102.7 ± 18 m/s
speed of sound (337.71 K, 10010 kPa): 1111.9 ± 18 m/s
speed of sound (337.95 K, 1000 kPa): 1065.3 ± 17 m/s
speed of sound (337.97 K, 3000 kPa): 1078 ± 17 m/s
speed of sound (346.56 K, 1010 kPa): 1029.7 ± 16 m/s
speed of sound (346.9 K, 100 kPa): 1021.1 ± 16 m/s
speed of sound (346.92 K, 10020 kPa): 1081.3 ± 17 m/s
speed of sound (347.43 K, 7000 kPa): 1067.3 ± 17 m/s
speed of sound (347.71 K, 3010 kPa): 1040.3 ± 17 m/s
speed of sound (347.75 K, 5010 kPa): 1054.8 ± 17 m/s
speed of sound (356.24 K, 3010 kPa): 1011.9 ± 16 m/s
speed of sound (356.68 K, 10010 kPa): 1048.7 ± 17 m/s
speed of sound (357.28 K, 100 kPa): 970.4 ± 16 m/s
speed of sound (357.33 K, 7010 kPa): 1033.1 ± 17 m/s
speed of sound (357.35 K, 5000 kPa): 1022.1 ± 16 m/s
speed of sound (357.85 K, 1010 kPa): 989.8 ± 16 m/s
speed of sound (366.38 K, 3010 kPa): 970.6 ± 16 m/s
speed of sound (366.68 K, 5000 kPa): 980.4 ± 16 m/s
speed of sound (366.89 K, 10000 kPa): 1005.5 ± 16 m/s
speed of sound (367.18 K, 7000 kPa): 989.6 ± 16 m/s
speed of sound (367.24 K, 1010 kPa): 947.2 ± 15 m/s
speed of sound (367.48 K, 100 kPa): 938.2 ± 15 m/s
speed of sound (377.25 K, 3000 kPa): 927.9 ± 15 m/s
speed of sound (377.7 K, 10000 kPa): 974.3 ± 16 m/s
speed of sound (377.72 K, 5000 kPa): 939.5 ± 15 m/s
speed of sound (377.88 K, 110 kPa): 903.5 ± 14 m/s
speed of sound (377.91 K, 1010 kPa): 910.8 ± 15 m/s
speed of sound (377.97 K, 7000 kPa): 961 ± 15 m/s
speed of sound (386.63 K, 3000 kPa): 894.6 ± 14 m/s
speed of sound (386.85 K, 10000 kPa): 945.8 ± 15 m/s
speed of sound (387.01 K, 1010 kPa): 874.2 ± 14 m/s
speed of sound (387.07 K, 7000 kPa): 922 ± 15 m/s
speed of sound (387.29 K, 5000 kPa): 908.4 ± 15 m/s
speed of sound (387.73 K, 100 kPa): 866.5 ± 14 m/s
speed of sound (396.7 K, 3000 kPa): 862 ± 14 m/s
speed of sound (397.25 K, 10010 kPa): 909.9 ± 15 m/s
speed of sound (397.54 K, 7020 kPa): 891.4 ± 14 m/s
speed of sound (397.64 K, 1010 kPa): 842.1 ± 14 m/s
speed of sound (397.83 K, 5000 kPa): 875.5 ± 14 m/s
speed of sound (398.6 K, 90 kPa): 827.8 ± 13 m/s
speed of sound (406.65 K, 1010 kPa): 810.8 ± 13 m/s
speed of sound (406.78 K, 3010 kPa): 828.8 ± 13 m/s
speed of sound (406.79 K, 7020 kPa): 857.7 ± 14 m/s
speed of sound (406.89 K, 10000 kPa): 885.7 ± 14 m/s
speed of sound (406.99 K, 5010 kPa): 841.7 ± 14 m/s
speed of sound (407.93 K, 100 kPa): 799 ± 13 m/s
speed of sound (416.99 K, 7010 kPa): 835.1 ± 13 m/s
speed of sound (417.08 K, 1010 kPa): 775.9 ± 12 m/s
speed of sound (417.12 K, 3000 kPa): 796.9 ± 13 m/s
speed of sound (417.21 K, 5010 kPa): 808.2 ± 13 m/s
speed of sound (417.21 K, 10020 kPa): 864.4 ± 14 m/s
speed of sound (417.52 K, 110 kPa): 764.3 ± 12 m/s
speed of sound (427.06 K, 1000 kPa): 746 ± 12 m/s
speed of sound (427.25 K, 3000 kPa): 770.6 ± 12 m/s
speed of sound (427.25 K, 5000 kPa): 786.5 ± 13 m/s
speed of sound (427.33 K, 7000 kPa): 805.5 ± 13 m/s
speed of sound (427.38 K, 10010 kPa): 833.5 ± 13 m/s
speed of sound (436.99 K, 1010 kPa): 714.9 ± 13 m/s
speed of sound (437.07 K, 5000 kPa): 751.6 ± 12 m/s
speed of sound (437.97 K, 6990 kPa): 771.5 ± 12 m/s
speed of sound (438.1 K, 9980 kPa): 802.1 ± 13 m/s
speed of sound (439.3 K, 3000 kPa): 727.5 ± 13 m/s
speed of sound (446.68 K, 3010 kPa): 706.2 ± 13 m/s
speed of sound (447 K, 4990 kPa): 723 ± 13 m/s
speed of sound (447.21 K, 10010 kPa): 776 ± 12 m/s
speed of sound (447.38 K, 7000 kPa): 744.5 ± 12 m/s
speed of sound (447.88 K, 1000 kPa): 672.6 ± 12 m/s
speed of sound (456.61 K, 3000 kPa): 673.8 ± 12 m/s
speed of sound (456.81 K, 9990 kPa): 747 ± 12 m/s
speed of sound (456.84 K, 5000 kPa): 695.3 ± 13 m/s
speed of sound (457.1 K, 7010 kPa): 715.1 ± 13 m/s
speed of sound (457.84 K, 990 kPa): 642.8 ± 12 m/s
speed of sound (466.22 K, 3010 kPa): 642.9 ± 12 m/s
speed of sound (466.28 K, 5000 kPa): 663.1 ± 12 m/s
speed of sound (466.3 K, 7000 kPa): 689.7 ± 12 m/s
speed of sound (466.3 K, 10010 kPa): 720.4 ± 13 m/s
speed of sound (466.46 K, 1010 kPa): 613.5 ± 11 m/s
speed of sound (478.01 K, 1010 kPa): 570.1 ± 10 m/s
speed of sound (478.28 K, 7000 kPa): 646.3 ± 12 m/s
speed of sound (478.28 K, 10000 kPa): 677.8 ± 12 m/s
speed of sound (478.34 K, 5010 kPa): 623.4 ± 11 m/s
speed of sound (478.43 K, 3010 kPa): 596.3 ± 11 m/s
speed of sound (487.58 K, 1000 kPa): 535.4 ± 11 m/s
speed of sound (487.67 K, 3010 kPa): 565.4 ± 10 m/s
speed of sound (487.67 K, 5000 kPa): 595 ± 11 m/s
speed of sound (487.69 K, 7000 kPa): 617 ± 11 m/s
speed of sound (487.71 K, 10000 kPa): 653.5 ± 12 m/s
speed of sound (497.17 K, 1010 kPa): 499.6 ± 10 m/s
speed of sound (497.36 K, 5000 kPa): 568.5 ± 10 m/s
speed of sound (497.38 K, 7000 kPa): 591.6 ± 11 m/s
speed of sound (497.43 K, 3010 kPa): 534.1 ± 11 m/s
speed of sound (497.44 K, 10000 kPa): 629.4 ± 11 m/s
speed of sound (506.49 K, 3000 kPa): 503.9 ± 10 m/s
speed of sound (506.88 K, 1000 kPa): 464.6 ± 9.3 m/s
speed of sound (506.97 K, 7010 kPa): 563.3 ± 10 m/s
speed of sound (507.02 K, 10020 kPa): 599.2 ± 11 m/s
speed of sound (507.11 K, 5010 kPa): 535.1 ± 11 m/s
speed of sound (516.99 K, 1010 kPa): 426.2 ± 9.4 m/s
speed of sound (517.52 K, 7010 kPa): 531.6 ± 11 m/s
speed of sound (517.56 K, 3000 kPa): 468.7 ± 9.4 m/s
speed of sound (517.6 K, 5010 kPa): 504.9 ± 10 m/s
speed of sound (517.63 K, 10010 kPa): 571 ± 10 m/s
speed of sound (528.29 K, 5000 kPa): 472.6 ± 9.5 m/s
speed of sound (528.46 K, 7000 kPa): 504 ± 10 m/s
speed of sound (528.65 K, 10010 kPa): 547.3 ± 9.9 m/s
speed of sound (529.52 K, 3000 kPa): 426 ± 9.4 m/s
speed of sound (538.04 K, 3000 kPa): 396.8 ± 8.8 m/s
speed of sound (538.26 K, 5010 kPa): 439.9 ± 8.9 m/s
speed of sound (538.26 K, 7000 kPa): 472.1 ± 9.5 m/s
speed of sound (538.35 K, 10000 kPa): 516.1 ± 10 m/s
speed of sound (547.56 K, 3000 kPa): 362.7 ± 8.8 m/s
speed of sound (547.96 K, 5000 kPa): 406.1 ± 9 m/s
speed of sound (548.18 K, 9980 kPa): 498.8 ± 10 m/s
speed of sound (548.26 K, 7000 kPa): 446 ± 9 m/s
speed of sound (557.68 K, 3000 kPa): 321.9 ± 7.8 m/s
speed of sound (557.89 K, 7010 kPa): 423 ± 9.4 m/s
speed of sound (558.07 K, 10000 kPa): 472.6 ± 9.5 m/s
speed of sound (558.34 K, 5000 kPa): 378.3 ± 8.4 m/s
speed of sound (565.69 K, 10010 kPa): 446.4 ± 9 m/s
speed of sound (566.56 K, 3010 kPa): 285.3 ± 7.5 m/s
speed of sound (567.58 K, 5000 kPa): 346.5 ± 8.4 m/s
speed of sound (567.72 K, 7010 kPa): 390.1 ± 8.6 m/s
speed of sound (575.39 K, 5000 kPa): 317.9 ± 8.4 m/s
speed of sound (576.35 K, 7000 kPa): 365.2 ± 8.8 m/s
speed of sound (576.45 K, 3010 kPa): 241 ± 6.4 m/s
speed of sound (577.04 K, 10010 kPa): 420.8 ± 9.3 m/s
speed of sound (586.48 K, 3000 kPa): 197.5 ± 5.8 m/s
speed of sound (586.99 K, 5010 kPa): 275 ± 7.8 m/s
speed of sound (587.76 K, 7000 kPa): 334.6 ± 8.1 m/s
speed of sound (588.07 K, 10030 kPa): 393.2 ± 8.7 m/s
